Reference: PubChem BioAssay (NCI)
“And” between values parts separate entries of the source, which are not always exact repeats. Equal entries are not always repeated.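 Values below derive from 48-hour exposures of cells grown in 96-well plates, with endpoints linearly interpolated between the two concentrations bracketing the appropriate inhibition level. GI50 marks 50% less growth. Definition used: TGI = concentration required for complete inhibition of growth.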

Columns and labels:
Assay in all cases: growth of human tumour cells (NCI), 48 h
SK-OV-3 ovarian = tested on: SK-OV-3 ovarian
MDA-MB-435 = tested on: MDA-MB-435
EKVX NSCLC = tested on: EKVX NSCLC
T-47D breast = tested on: T-47D breast
NCI/ADR-RES ovarian = tested on: NCI/ADR-RES ovarian
A498 renal = tested on: A498 renal
OVCAR-3 ovarian = tested on: OVCAR-3 ovarian
A549 NSCLC = tested on: A549 NSCLC
HT29 colon = tested on: HT29 colon
COLO 205 colon = tested on: COLO 205 colon

Structure (SMILES) | TGI (SK-OV-3 ovarian) | TGI (MDA-MB-435) [µM] | TGI (EKVX NSCLC) | TGI (T-47D breast) [µM] | TGI (NCI/ADR-RES ovarian) [µM] | TGI (A498 renal) | TGI (OVCAR-3 ovarian) | TGI (A549 NSCLC) | TGI (HT29 colon) [µM] | TGI (COLO 205 colon) [µM] | GI50 (SK-OV-3 ovarian) | GI50 (MDA-MB-435) [µM] | GI50 (EKVX NSCLC) [µM] | GI50 (NCI/ADR-RES ovarian) [µM] | GI50 (A498 renal) | GI50 (OVCAR-3 ovarian) [µM] | GI50 (A549 NSCLC) [µM] | GI50 (HT29 colon) [µM] | GI50 (COLO 205 colon) [µM] | GI50 (T-47D breast) [µM]
CCOC(=O)c1nc2ccc(C(F)(F)F)cc2nc1Oc1cc(OC)c(OC)c(OC)c1 | > 100 µM | > 100 | > 100 µM | > 100 | > 100 | > 100 µM | > 100 µM | > 100 µM | > 100 | 63.7 | – | – | – | – | – | – | – | – | – | –
O=[N+]([O-])c1ccc2sc(C=Nc3cnccn3)cc2c1 | > 100 µM | > 100 | > 100 µM | 28 | > 100 | 86 µM | > 100 µM | > 100 µM | > 100 | > 100 | – | – | – | – | – | – | – | – | – | –
CC(=C(c1ccccc1)c1ccccc1)N1C(=O)CC(=O)N1C | > 100 µM | > 100 | > 100 µM | > 100 | > 100 | – | > 100 µM | > 100 µM | > 100 | > 100 | – | – | – | – | – | – | – | – | – | –
O=C1NC(=O)C(C(CC(=O)c2ccc([N+](=O)[O-])cc2)c2ccccc2)C(=O)N1 (configuration not stated) | > 100 µM | > 100 | – | 67 | > 100 | > 100 µM | > 100 µM | > 100 µM | > 100 | > 100 | – | – | – | – | – | – | – | – | – | –
O=S(Nc1ccccc1)c1ccc(N2CCOCC2)cc1 (configuration not stated) | – | > 100 | > 100 µM | 58.9 | > 100 | – | > 100 µM | > 100 µM | > 100 | > 100 | – | – | – | – | – | – | – | – | – | –
C[N+](C)(C)c1ccc(C(N)C(=O)O)cc1 (configuration not stated) | > 100 µM | > 100 | > 100 µM | > 100 | > 100 | > 100 µM | > 100 µM | – | > 100 | > 100 | – | – | – | – | – | – | – | – | – | –
CN(C)C(=O)OC1C(=O)N(C)c2ccc(Cl)cc2C2(c3ccccc3)N1C2(Cl)Cl (configuration not stated) | > 100 µM | – | > 100 µM | – | – | – | > 100 µM | – | > 100 | > 100 | – | – | – | – | – | – | – | – | – | –
C=C/C(C)=C\CC1[C@](C)(O)CC[C@H]2C(C)(C)C(=O)CC[C@]12C (some centres not stated) | – | > 100 | > 100 µM | – | > 100 | > 100 µM | > 100 µM | > 100 µM | > 100 | > 100 | – | – | – | – | – | – | – | – | – | –
NCCCN(CCCN(C(=O)Nc1ccccc1)c1ccccc1)C(=O)Nc1ccccc1 | > 100 µM | – | > 100 µM | 79.3 | > 100 | > 100 µM | – | > 100 µM | > 100 | > 100 | – | – | – | – | – | – | – | – | – | –
C[C@H](NC(=O)C(Cc1ccccc1)(Cc1ccc(O)cn1)NC(=O)c1ccccc1)c1ccccc1 (some centres not stated) | – | 37.3 | 34.2 µM | 69.1 | 44.6 | 33.5 µM | 28.7 µM | 31.6 µM | 33.4 | 35.1 | – | – | – | – | – | – | – | – | – | –
Cc1ccc(S(=O)(=O)n2c3ccc(Br)cc3c3nc4ccccc4nc32)cc1 | – | > 100 | – | > 100 | > 100 | > 100 µM | > 100 µM | > 100 µM | > 100 | > 100 | – | – | – | – | – | – | – | – | – | –
Cc1cc(F)ccc1S(=O)(=O)Nc1cc(-c2c(O)ccc3ccccc23)c(O)c2ccccc12 | 11.6 µM | 10.9 | 7.45 µM | – | 13.6 | 9.75 µM | 10.3 µM | 15.5 µM | 21.1 | 4.94 | 2.37 µM | 3.18 | 1.93 | 3.05 | 3 µM | 2.67 | 3.76 | 4.09 | 2.08 | –
[Cl][Sn]([c]1ccccc1)([c]1ccccc1)[c]1ccccc1 | 0.696 µM and 0.335 µM | 0.42 | 0.985 µM and 0.239 µM and 0.119 µM | 0.412 | – | 0.523 µM and 0.159 µM | 0.362 µM and 0.0422 µM and 0.0566 µM | 0.41 µM and 0.176 µM and 0.0469 µM | – | – | 0.239 µM and 0.178 µM | 0.186 | – | – | 0.165 µM and 0.0456 µM | – | – | – | – | 0.171
CC(C)=NN/C(=N\S(=O)(=O)c1ccc(Oc2cccc(Cl)c2C#N)cc1)Nc1ccc(Cl)cc1 | – | > 100 | > 100 µM | > 100 | > 100 | – | > 100 µM | > 100 µM | > 100 | > 100 | – | – | – | – | – | – | – | – | – | –
O=C(NCCCCCCCCCCCCNC(=O)Nc1cccc2ccccc12)Nc1cccc2ccccc12 | – | 33.5 | 43.3 µM | 36.7 | 60.6 | 31.7 µM | 30.3 µM | 32.9 µM | 40.8 | 44.1 | – | – | – | – | – | – | – | – | – | –
Cc1csc(NC23CC4CC(CC(C4)C2)C3)[n+]1C(P(=O)([O-])O)P(=O)(O)O (configuration not stated) | > 100 µM | > 100 | > 100 µM | – | > 100 | > 100 µM | > 100 µM | > 100 µM | > 100 | > 100 | – | – | – | – | – | – | – | – | – | –
COc1cc2ccc(=O)oc2cc1O | 509 µM | – | 226 µM | – | 277 | 208 µM | 330 µM | 320 µM | > 625 | > 625 | – | – | – | – | – | – | – | – | – | –
NC(=O)c1cccc([N+](=O)[O-])c1 | > 100 µM | – | > 100 µM | – | – | > 100 µM | > 100 µM | > 100 µM | > 100 | > 100 | – | – | – | – | – | – | – | – | – | –
O=S(=O)(c1ccc(NC2=NC(c3ccc(O)cc3)(c3ccccc3O)c3ccccc32)cc1)c1ccc(NC2=NC(c3ccc(O)cc3)(c3ccccc3O)c3ccccc32)cc1 (configuration not stated) | > 73.3 µM | > 24.6 | > 52.6 µM | – | > 100 | 44.8 µM | > 100 µM | > 100 µM | > 52.7 | > 33.6 | – | – | – | – | – | – | – | – | – | –
CCCC(=O)NC(Nc1ccc(S(=O)(=O)Nc2cc(C)on2)cc1)(C(=O)OCC)C(F)(F)F (configuration not stated) | > 100 µM | > 100 | > 100 µM | > 100 | > 100 | – | > 100 µM | > 100 µM | > 100 | > 100 | – | – | – | – | – | – | – | – | – | –
CC(=O)OCC1OC(SC2=N/C(=C\c3ccc(Br)s3)C(=O)N2CN2CCOCC2)C(OC(C)=O)C(OC(C)=O)C1OC(C)=O (configuration not stated) | – | > 100 | 97.4 µM | 91.8 | 44 | 46 µM | – | – | 34.2 | 37.6 | – | – | – | – | – | – | – | – | – | –
O=c1cc(N2CCCC2)[nH]c(=O)n1Cc1ccccc1 | – | > 100 | > 100 µM | – | > 100 | – | – | > 100 µM | > 100 | > 100 | – | – | – | – | – | – | – | – | – | –
COP(=O)(OC)C(Cc1cn(C(C)=O)c2ccccc12)C(=O)O (configuration not stated) | > 100 µM | – | – | > 100 | > 100 | > 100 µM | > 100 µM | > 100 µM | > 100 | > 100 | – | – | – | – | – | – | – | – | – | –
